In article PMC12224939, “Trypstatin as a Novel TMPRSS2 Inhibitor with Broad‐Spectrum Efficacy against Corona and Influenza Viruses” (Advanced Science, 2025):
“Also recorded” adds a separate entry of the source. Bridge positions count the residues as written; N and C are the ends.

Assays:
recombinant ACE2 = biological target: T1, recombinant ACE2 (Homo sapiens, UniProt Q9BYF1); assay: Recombinant ACE2 assay; type: biochemical
T1 construct: purchased R&D 933-ZN
Procedure: To determine the activity of Trypstatin against ACE2, 25 µL of 0,4 µg mL^−1 recombinant ACE2 (R&D #933‐ZN) in assay buffer (75 mM Tris, 1 M NaCl, pH 7.5) was mixed with 25 µL of inhibitor for 15 min at 37 °C before addition of 50 µL of 40 µM of MCA‐YVADAPK(Dnp)‐OH substrate (R&D #ES007) and incubation for 5 min at 37 °C. Fluorescence intensity was measured after 5 min at an excitation wavelength of 320 nm and emission wavelength of 405 nm in a SynergyTM H1 microplate reader (BioTek) with Gen5 3.04 software.

cathepsin L = biological target: T2, cathepsin L (Homo sapiens, UniProt P07711); assay: Cathepsin L activity assay; type: biochemical; conditions: recombinant enzyme
T2 construct: purchased R&D 952-Cy
T2 sequence (P07711 114-333): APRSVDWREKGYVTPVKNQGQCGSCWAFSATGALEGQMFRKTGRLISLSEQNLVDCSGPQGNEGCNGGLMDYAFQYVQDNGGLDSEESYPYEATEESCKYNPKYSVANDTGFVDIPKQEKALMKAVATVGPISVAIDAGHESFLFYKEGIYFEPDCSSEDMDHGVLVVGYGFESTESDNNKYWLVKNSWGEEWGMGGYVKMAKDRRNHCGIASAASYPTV
Procedure: (§1) Cathepsin enzyme activity assays were performed as described before.^[ [42] ^] In brief, serially diluted compounds were mixed with recombinant cathepsin L (R&D #952‐Cy) in assay buffer (50 mM MES, 5 mM DTT, 1 mM EDTA, 0.005% Brij35, pH 6) or with cathepsin B from human placenta (Sigma Aldrich #C0150) in assay buffer (105.6 mM KH2PO4, 14.4 mM Na2HPO4, 1.2 mM EDTA, 0.07% Brij35, 2.4 mM L‐cysteine, pH 6). The protease‐inhibitor mixtures were incubated for 10 min at RT before the addition of the respective fluorogenic reporter substrate Z‐Leu‐Arg‐AMC (for cathepsin L; Bachem #4034611) or Z‐Arg‐Arg‐AMC (for cathepsin B; Bachem #4004789). The final concentrations were as follows: Cathepsin L 0.01 µg mL^−1, cathepsin B 1 µg mL^−1, Z‐Leu‐Arg‐AMC 40 µM or Z‐Arg‐Arg‐AMC 30 µM. Fluorescence intensity was recorded at an excitation wavelength of 380 nm and emission wavelength of 460 nm after 25 min at 37 °C (cathepsin L) or after 60 min at 40 °C (cathepsin B) in a Synergy H1 microplate reader (BioTek) with Gen 5 3.04 software.

[1] = biological target: T3, cathepsin B from human placenta (Homo sapiens, UniProt P07858); assay: Cathepsin B activity assay; type: biochemical; conditions: enzyme from human placenta
T3 construct: cathepsin B from human placenta (Sigma Aldrich #C0150); purchased Sigma Aldrich C0150; host or cells: human placenta (tissue-derived)
Procedure: as §1

recombinant furin = biological target: T4, recombinant furin (Homo sapiens, UniProt P09958); assay: Furin activity assay; type: biochemical
T4 construct: purchased Bachem (so in the source) 1503-SE-010
T4 sequence (P09958 108-794): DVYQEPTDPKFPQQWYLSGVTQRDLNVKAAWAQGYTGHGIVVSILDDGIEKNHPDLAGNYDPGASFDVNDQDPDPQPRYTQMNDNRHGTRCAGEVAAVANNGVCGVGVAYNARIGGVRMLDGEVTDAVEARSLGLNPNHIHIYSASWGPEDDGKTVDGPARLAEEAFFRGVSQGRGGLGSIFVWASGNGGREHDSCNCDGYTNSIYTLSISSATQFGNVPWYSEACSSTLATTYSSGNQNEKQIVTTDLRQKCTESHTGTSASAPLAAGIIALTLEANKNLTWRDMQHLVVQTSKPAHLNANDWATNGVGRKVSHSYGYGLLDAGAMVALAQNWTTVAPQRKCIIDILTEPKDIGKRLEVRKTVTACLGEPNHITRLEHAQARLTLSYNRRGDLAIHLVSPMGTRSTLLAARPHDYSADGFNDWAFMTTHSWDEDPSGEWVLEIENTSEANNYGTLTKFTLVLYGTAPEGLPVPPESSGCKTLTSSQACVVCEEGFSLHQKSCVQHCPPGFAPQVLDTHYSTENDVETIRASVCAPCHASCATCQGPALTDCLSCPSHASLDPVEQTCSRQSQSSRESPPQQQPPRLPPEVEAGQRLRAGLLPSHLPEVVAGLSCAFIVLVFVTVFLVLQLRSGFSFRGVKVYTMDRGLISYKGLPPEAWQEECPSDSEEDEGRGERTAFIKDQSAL
Procedure: Furin activity assay was conducted as described previously with slight changes.^[ [42] ^] In brief, Trypstatin was mixed with recombinant furin (Bachem #1503‐SE‐010, final concentration 1.0 ng µL^−1) in assay buffer (25 mM Tris, 1 mM CaCl2, pH 9) for 30 min at room temperature before the addition of […] ‐L‐pyroglutamyl‐modified RTKR‐ AMC substrate (Bachem #4018149) per well with a final concentration of 1 mM CaCl2 in water. Fluorescence intensity was recorded in 2 min intervals for 5 h at an excitation wavelength of 355 nm and emission wavelength of 460 nm at 37 °C in a Cytation 3 (BioTek) microplate reader. The area under the curve values were normalized to the furin control. Hexa‐D‐arginine served as inhibitor control.

TMPRSS14 (Matriptase) = biological target: T5, TMPRSS14 (Matriptase) (Homo sapiens, UniProt Q9Y5Y6); assay: Recombinant TMPRSS14 activity assay; type: biochemical; conditions: recombinant enzyme
T5 construct: purchased 3946
T5 sequence (Q9Y5Y6 whole entry): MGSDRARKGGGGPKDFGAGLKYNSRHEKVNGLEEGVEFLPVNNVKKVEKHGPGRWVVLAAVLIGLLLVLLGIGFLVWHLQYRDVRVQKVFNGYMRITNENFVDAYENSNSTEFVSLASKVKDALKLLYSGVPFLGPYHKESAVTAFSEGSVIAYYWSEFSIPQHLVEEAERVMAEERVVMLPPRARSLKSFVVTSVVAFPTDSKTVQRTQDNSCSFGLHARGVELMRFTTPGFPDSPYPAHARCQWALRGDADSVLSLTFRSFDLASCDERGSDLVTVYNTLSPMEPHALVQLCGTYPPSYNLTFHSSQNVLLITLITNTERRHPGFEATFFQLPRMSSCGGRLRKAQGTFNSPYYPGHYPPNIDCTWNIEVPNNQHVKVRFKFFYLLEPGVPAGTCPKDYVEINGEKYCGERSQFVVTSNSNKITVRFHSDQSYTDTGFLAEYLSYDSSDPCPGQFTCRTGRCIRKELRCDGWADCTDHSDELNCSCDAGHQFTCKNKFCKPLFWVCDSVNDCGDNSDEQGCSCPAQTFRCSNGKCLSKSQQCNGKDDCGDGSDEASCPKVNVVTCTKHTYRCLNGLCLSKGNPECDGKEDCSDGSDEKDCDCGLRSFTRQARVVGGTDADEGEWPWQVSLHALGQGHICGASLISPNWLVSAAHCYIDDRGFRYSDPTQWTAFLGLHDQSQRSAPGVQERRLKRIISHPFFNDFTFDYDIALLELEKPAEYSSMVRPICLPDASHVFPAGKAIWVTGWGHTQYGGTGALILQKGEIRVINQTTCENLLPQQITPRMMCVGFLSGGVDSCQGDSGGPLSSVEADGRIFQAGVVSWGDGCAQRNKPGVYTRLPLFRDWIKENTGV
Procedure: In the next step, 50 µL of 20 µM BOC‐Gln‐Ala‐Arg‐AMC protease substrate (Bachem #4017019) in the case of TMPRSS2 and TMPRSS14 or 50 µL of 150 µM BOC‐Gln‐Arg‐Arg‐AMC (PeptaNova) in the case of TMPRSS1 was added and incubated for 2 h for TMPRSS2, or 5 mins in the case of TMPRSS1/14 at 37 °C. Fluorescence intensity was measured after 2 h at an excitation wavelength of 380 nm and emission wavelength of 460 nm in a SynergyTM H1 microplate reader (BioTek) with Gen5 3.04 software. […] Assays were performed in a total volume of 100 µL in quadruplicate wells of a 96 Nunc well plate (Thermo Scientific #10174221) with a final TMPRSS2 concentration of 20 nM. Initial velocities were measured in 50 s intervals for 15 min with excitation of 360 nm and emission of 460 nm in a SynergyTM H1 microplate reader. K m and V max were calculated from Michaelis–Menten plots using GraphPadPrism. The inhibitory constant K i was calculated from the IC50 values according to the Cheng–Prusoff equation (K i = IC50/(1 + [S]/K m)) for competitive reversible inhibitors.^[ [91] ^]

Caco-2 cells = assay: Cytotoxicity assay (CellTiter-Glo); type: cell-based, human; conditions: 48 h, ATP levels, tested concentrations
Procedure: To assess the cytotoxicity of the inhibitors used, 10 000 Caco2 cells were seeded in a 96‐well flat bottom plate. The next day, the medium was replaced and cells were treated with serial dilutions of compounds or PBS as a control. After 48 h, cell viability was assessed by measuring ATP levels in cell lysates with a commercially available kit (CellTiter‐Glo, Promega) in an Orion II microplate reader with Simplicity 4.2 software.

SARS-CoV-2 BA.5 = type: cell-based
[2] = biological target: T6, TMPRSS2 Syrian gold hamster (Mesocricetus auratus, UniProt A0A1U8C7C8); assay: Cellular hamster TMPRSS2 activity assay in transfected HEK293T cells; type: cell-based; conditions: compared with human TMPRSS2
T6 construct: encoding the respective transmembrane serine protease per well; host or cells: HEK293T
T6 sequence (A0A1U8C7C8 1-492): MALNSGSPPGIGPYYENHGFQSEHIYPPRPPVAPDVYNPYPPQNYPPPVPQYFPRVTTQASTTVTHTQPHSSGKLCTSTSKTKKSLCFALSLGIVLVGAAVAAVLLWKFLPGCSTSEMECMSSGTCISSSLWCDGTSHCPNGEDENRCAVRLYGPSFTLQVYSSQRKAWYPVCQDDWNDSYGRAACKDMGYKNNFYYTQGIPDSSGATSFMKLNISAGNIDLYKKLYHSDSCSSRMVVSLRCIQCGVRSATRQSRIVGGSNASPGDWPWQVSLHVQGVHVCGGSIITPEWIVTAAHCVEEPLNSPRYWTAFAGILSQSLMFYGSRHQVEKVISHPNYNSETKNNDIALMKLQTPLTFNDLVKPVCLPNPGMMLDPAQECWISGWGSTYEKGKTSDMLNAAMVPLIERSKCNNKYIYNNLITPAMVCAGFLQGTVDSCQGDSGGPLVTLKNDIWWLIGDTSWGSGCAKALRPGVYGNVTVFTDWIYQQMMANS
Procedure: Twenty thousand HEK293T cells were seeded in a 96‐well flat bottom plate. The next day, cells were transfected with 100 ng of an expression plasmid (Backbone: Twist Bioscience, EF1alpha mammalian expression vector) encoding the respective transmembrane serine protease per well using LT1 transfection reagent (TMPRSS2 human NCBI RefSeq: NP_005647.3; TMPRSS2 Syrian gold hamster NCBI RefSeq: XP_012971683.1; TMPRSS11D NCBI RefSeq: NP_004253.1; TMPRSS13 NCBI RefSeq: NP_001070731.1). In short, plasmid DNA was mixed in a 1:3 ratio with LT1 in a serum‐free medium and incubated for 20 min before the mixture was applied dropwise onto the cells. Sixteen hours post‐transfection, the medium was replaced by a serum‐free medium, and cells were treated with serial dilution of compounds in PBS. After 15 min of incubation at 37 °C, 100 µM of respective protease‐specific substrate (TMPRSS2: Boc‐QAR‐AMC, Bachem # 4017019; TMPRSS11D: Boc‐FSR‐AMC, Bachem # 4012340; TMPRSS13: Pyr‐RTKR‐AMC, Bachem #4018149) was added and incubated for 2 h at 37 °C. Fluorescence intensity was recorded at an excitation wavelength of 380 nm and emission wavelength of 460 nm in a Synergy H1 microplate reader (BioTek) with Gen 5 3.04 software. Values were background corrected for non‐transfected HEK293T‐cells. […]

[3] = tested on: IL-1ß, IL-6, CCL5, CXCL10, IRF1 expression in HAECs; type: cell-based, human
SARS-CoV-2 Delta = conditions: hamster, in vivo
[4] = tested on: lentiviral pseudoparticles harboring VSV-G glycoprotein; type: cell-based

T1 sequence (Q9BYF1 18-805): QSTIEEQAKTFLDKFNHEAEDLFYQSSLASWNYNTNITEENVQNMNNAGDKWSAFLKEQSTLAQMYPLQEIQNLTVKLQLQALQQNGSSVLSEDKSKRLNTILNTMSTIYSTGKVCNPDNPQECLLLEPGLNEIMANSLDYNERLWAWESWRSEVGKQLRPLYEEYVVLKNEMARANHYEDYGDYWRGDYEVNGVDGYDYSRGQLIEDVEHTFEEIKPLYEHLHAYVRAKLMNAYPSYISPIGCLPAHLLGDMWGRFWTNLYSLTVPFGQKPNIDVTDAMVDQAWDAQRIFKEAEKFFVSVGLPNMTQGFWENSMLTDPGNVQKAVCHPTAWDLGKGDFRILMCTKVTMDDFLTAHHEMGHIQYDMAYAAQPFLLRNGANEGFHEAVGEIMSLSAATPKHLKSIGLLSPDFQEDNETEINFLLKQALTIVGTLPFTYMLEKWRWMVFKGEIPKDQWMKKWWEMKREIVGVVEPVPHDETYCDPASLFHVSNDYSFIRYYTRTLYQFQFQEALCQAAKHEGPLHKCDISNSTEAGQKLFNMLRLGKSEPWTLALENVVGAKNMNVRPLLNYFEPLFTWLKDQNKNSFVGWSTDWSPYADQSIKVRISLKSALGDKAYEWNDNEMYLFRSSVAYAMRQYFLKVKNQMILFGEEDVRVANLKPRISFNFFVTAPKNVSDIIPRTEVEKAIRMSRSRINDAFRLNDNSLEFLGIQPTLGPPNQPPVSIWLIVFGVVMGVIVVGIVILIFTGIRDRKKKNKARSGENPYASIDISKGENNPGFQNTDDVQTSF

**Q.** “VAACNLPIVRGPCRAFIQLWAFDAVKGKCVLFPYGGCQGNGNKFYSEKECREYCGVPGDGD (disulfide 4-54, 13-37, 29-50 (inferred)) [Trypstatin]” was tested. Which “inhibition of ACE2” value (recombinant ACE2) did it give?
**A.** Its value is “did not inhibit; also recorded: does not inhibit”.

**Q.** What about the “inhibition of Cathepsin L” value (cathepsin L) of the same sequence?
**A.** Its value is “did not inhibit”.

**Q.** And the “inhibition of Cathepsin B” value [1]?
**A.** The value was “did not inhibit”.

**Q.** What about the “inhibition of Furin” value (recombinant furin) of the same sequence?
**A.** The value was “did not inhibit; also recorded: does not inhibit”.

**Q.** What about the “inhibition of TMPRSS14” value (TMPRSS14 (Matriptase)) of the same sequence?
**A.** Its value is “no effect”.

**Q.** What about the “cytotoxicity / cell viability” value (Caco-2 cells) of the same sequence?
**A.** Its value is “does not influence cell viability”.

**Q.** What about the “reduction of SARS-CoV-2 BA.5 replication over 72 h” value (SARS-CoV-2 BA.5) of the same sequence?
**A.** Its value is “up to four orders of magnitude”.

**Q.** And the “inhibition of hamster TMPRSS2” value [2]?
**A.** Its value is “IC50 values similar to those for human TMPRSS2; also recorded: blocks hamster and human TMPRSS2 activity with similar efficacies”.

**Q.** And the “effect on expression of inflammatory genes” value [3]?
**A.** The value was “failed to reach significance; also recorded: does not have a significant anti-inflammatory effect”.

**Q.** What about the “clinical symptoms (piloerection, weakness, fatigue, abnormal posture)” value (SARS-CoV-2 Delta) of the same sequence?
**A.** Its value is “almost entirely absent”.

**Q.** What about the “infectious virus particles in BAL (TCID50)” value (SARS-CoV-2 Delta) of the same sequence?
**A.** Its value is “significantly reduced”.

**Q.** What about the “side effects in hamsters” value (SARS-CoV-2 Delta) of the same sequence?
**A.** The value was “without observed side effects”.

**Q.** What about the “viral loads in BAL (qPCR)” value (SARS-CoV-2 Delta) of the same sequence?
**A.** Its value is “significantly reduced”.

**Q.** And the “effect on VSV-G-mediated pseudoparticle entry” value [4]?
**A.** Its value is “without affecting VSV‐G‐driven entry”.
